Source: patent US10981906B2, “Substituted pyrrolopyridine JAK inhibitors and methods of making and using the same” (ACLARIS THERAPEUTICS, INC., priority 2017, dated 2021)

Legend:
[1] = target: JAK3 (a.a. 781-1124) (Homo sapiens (Human), UniProt P52333); experiment: JAK3 enzyme activity assay (SRCtide phosphorylation, Caliper); type: biochemical; settings: 2.5 nM JAK3, 1 μM SRCtide, 1 uM ATP, 40 minutes; read-out: JAK3 Inhibition IC50
Outline: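 2.5 nM JAK3 kinase domain with 1 μM FAM-SRCtide and 1 μM ATP in 20 mM HEPES pH 7.5, 10 mM MgCl2, 2% DMSO, 40 min at room temperature, EDTA stop. Phospho/unphospho peptide separated by mobility shift; 11-point 3-fold series in duplicate, 4-parameter logistic IC50.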

[2] = target: JAK1 (Homo sapiens (Human), UniProt P23458); experiment: JAK1 enzyme activity assay (Thermo Fisher SelectScreen Z-lyte); type: biochemical; settings: 1 hour kinase reaction, read-out: JAK1 Inhibition IC50
Outline: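 Z-lyte FRET assay with 21.2-91.5 ng JAK1 and 2 μM Tyr 06 peptide in 50 mM HEPES pH 7.0 with 10 mM MgCl2, reacted 1 hour before development reagent. Compounds tested in an 11-point dose-response from […] to 0.34 nM. IC50 from 4-parameter logistic fit of emission ratio.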

[3] = system: IFNγ stimulated STAT1 phosphorylation on Tyr701 (JAK1/2); experiment: JAK1/2 cellular target modulation: IFNγ stimulated phospho-STAT1 in PBMC; type: cell-based; settings: Homo sapiens, PBMC, IFNγ 10 ng/ml, 1 hour compound preincubation, read-out: Infγ-STAT1 IC50
Outline: (§1)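 Thawed human PBMC (200,000/well) in complete RPMI/10% FBS preincubated with compound 1 h at 37 °C, then stimulated with IL-2 25 ng/ml for 5 min (pSTAT5 Tyr694) or IFNγ 10 ng/ml for 10 min (pSTAT1 Tyr701). Cells lysed; pSTAT5 by MSD Tyr694/total STAT5a,b assay, pSTAT1 by sandwich ELISA.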

[4] = system: IL-2 stimulated STAT5 phosphorylation on Tyr694 (JAK1/3); experiment: JAK1/3 cellular target modulation: IL-2 stimulated phospho-STAT5 in PBMC; type: cell-based; settings: Homo sapiens, PBMC, IL-2 25 ng/ml, 1 hour compound preincubation, read-out: IL2-STAT5 Inhibition IC50
Outline: as §1

JAK1, sequence (P23458 whole entry): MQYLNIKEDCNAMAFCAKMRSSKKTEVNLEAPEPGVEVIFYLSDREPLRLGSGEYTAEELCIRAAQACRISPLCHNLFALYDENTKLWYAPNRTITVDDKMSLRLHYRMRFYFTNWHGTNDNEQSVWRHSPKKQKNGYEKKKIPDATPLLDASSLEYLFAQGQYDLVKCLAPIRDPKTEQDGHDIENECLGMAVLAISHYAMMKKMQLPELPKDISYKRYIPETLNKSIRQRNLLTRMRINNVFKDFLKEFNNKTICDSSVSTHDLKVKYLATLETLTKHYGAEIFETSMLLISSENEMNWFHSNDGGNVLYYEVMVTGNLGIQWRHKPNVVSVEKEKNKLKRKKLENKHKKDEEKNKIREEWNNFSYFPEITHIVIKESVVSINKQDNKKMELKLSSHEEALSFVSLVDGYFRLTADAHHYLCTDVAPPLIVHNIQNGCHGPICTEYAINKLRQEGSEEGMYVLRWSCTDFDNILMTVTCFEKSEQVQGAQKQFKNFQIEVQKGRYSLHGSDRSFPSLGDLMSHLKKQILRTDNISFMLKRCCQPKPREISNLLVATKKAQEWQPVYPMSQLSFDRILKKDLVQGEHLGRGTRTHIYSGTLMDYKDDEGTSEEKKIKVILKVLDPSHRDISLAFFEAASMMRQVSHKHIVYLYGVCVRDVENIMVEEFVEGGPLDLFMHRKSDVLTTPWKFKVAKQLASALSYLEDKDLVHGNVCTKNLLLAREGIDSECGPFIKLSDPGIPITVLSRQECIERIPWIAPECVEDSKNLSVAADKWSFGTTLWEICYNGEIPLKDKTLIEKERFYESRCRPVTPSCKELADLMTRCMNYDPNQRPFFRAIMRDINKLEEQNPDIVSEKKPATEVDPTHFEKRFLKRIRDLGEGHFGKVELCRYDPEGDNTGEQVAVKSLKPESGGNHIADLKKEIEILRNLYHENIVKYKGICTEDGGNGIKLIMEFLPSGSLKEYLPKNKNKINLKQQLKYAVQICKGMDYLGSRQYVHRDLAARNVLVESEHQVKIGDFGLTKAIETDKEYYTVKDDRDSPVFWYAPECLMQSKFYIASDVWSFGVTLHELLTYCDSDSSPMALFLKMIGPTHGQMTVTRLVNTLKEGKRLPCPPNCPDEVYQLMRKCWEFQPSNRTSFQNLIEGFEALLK
JAK3 (a.a. 781-1124), sequence (P52333 781-1124): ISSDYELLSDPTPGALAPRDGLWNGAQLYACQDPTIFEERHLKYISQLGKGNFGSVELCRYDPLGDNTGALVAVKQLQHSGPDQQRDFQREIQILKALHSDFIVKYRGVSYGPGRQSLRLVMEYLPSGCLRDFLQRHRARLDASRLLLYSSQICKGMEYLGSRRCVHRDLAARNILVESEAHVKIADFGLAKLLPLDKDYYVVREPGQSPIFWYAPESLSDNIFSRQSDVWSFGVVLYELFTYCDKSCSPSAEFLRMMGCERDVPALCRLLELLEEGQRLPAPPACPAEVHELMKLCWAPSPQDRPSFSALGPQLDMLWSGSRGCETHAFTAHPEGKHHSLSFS

IC50 [1]	IC50 [2]	IC50 [3]	IC50 [4]	SMILES
0.01 to 0.1 µM	0.01 to 0.1 µM	> 1 µM	0.1 to 1 µM	CCOC(=O)c1cnc2[nH]ccc2c1N[C@H]1CN(C(=O)C2(C#N)CC2)CC[C@H]1C [Example 126, ethyl 4-(((3R,4R)-1-(1-cyanocyclopropane-1-carbonyl)-4-methylpiperidin-3-yl)amino)-1H-pyrrolo[2,3-b]pyridine-5-carboxylate]
0.01 to 0.1 µM	0.01 to 0.1 µM	> 1 µM	0.1 to 1 µM	CCOC(=O)c1cnc2[nH]ccc2c1N[C@@H]1CCC[C@H](CCC#N)C1 (single isomer, unassigned; enantiomer 2) [Example 136, (cis) ethyl 4-((3-(2-cyanoethyl)cyclohexyl)amino)-1H-pyrrolo[2,3-b]pyridine-5-carboxylate, enantiomer 2]
